Test results published in patent US7482329B2, “Single domain TDF-related compounds and analogs thereof” (Thrasos Therapeutics, priority 2002, dated 2009).
“Also recorded” adds a separate entry of the source. Where a SMILES comes first, the peptide text is derived from it.

What was measured:
[1] = tested on: ICAM-1 in HK2 human transformed kidney proximal tubule cells; assay: ICAM-1 level in HK-2 cell medium after TNF-alpha stimulation (ELISA); assay type: cell-based; settings: FIG. 7; for effect on level of ICAM-1 in HK2 cell medium: after TNF-alpha inflammatory stimulation
Method: The immortalized PTEC-derived HK-2 (Human Kidney-2) cells (ATCC number CRL-2190) were grown in serum-free keratinocyte medium (GIBCO number 17005-042) supplemented with epidermal growth factor (EGF: 5 ng/mL) and bovine pituitary extract (40 ug/mL) for 48 hours as described previously (Ryan et al (1994) Kidney International 45:48-57). Cells were transferred to 24-well plates at a density of 3×10^5 cells per well. After 24 hours, cells were incubated with fresh medium containing TNF-alpha (5 ng/mL) for 20 hours. Controls received medium alone. Then cells were washed twice with fresh culture medium and further incubated with culture medium alone (medium control, and TNF control wells) or TDF-1 at three different concentrations (40, 200 or 1000 ng/mL) or TDFRP compounds at three different concentrations (4, 20 or 100 uM) for sixty hours. During incubation, cells were kept in a 5% CO2 humid atmosphere at 37° C. At the end of the incubation, the media were removed and stored frozen until assayed. The concentrations of IL-6 and sICAM-in culture supernatants were measured by specific ELISA.
Dilute the capture antibody to the working concentration in PBS, pH 7.4 without carrier protein. Add 61 uL of stock antibody (720 ug/mL) to 10.939 mL of PBS, gently vertex. Immediately coat a 96 well microplate (Immulon 4 HBX) with 100 uL per well of the diluted capture antibody. Seal the plate and incubate it overnight in cold (4° C.). (PBS: 8.1 mM Na2HPO4, 1.5 mM KH2PO4, 137 mM NaCl, 2.7 mM KCl, pH 7.4, 0.2 um filtered).
Next day empty the wells and wash the wells three times, each time using 340 uL of wash buffer per well. (wash buffer: PBS, pH 7.4 containing 0.05% Tween-20). Prepare blocking buffer, 35 mL per plate. To prepare blocking buffer, add 0.35 grams of BSA and 1.75 grams of sucrose to 35 mL of PBS, pH 7.4, and mix the contents gently. Add 300 uL of blocking buffer to each well and incubate the plate for a minimum of 1 hour at room temperature. Empty the wells and wash wells three times, each time using 340 uL of wash buffer per well. […]

[2] = tested on: Smad1 in HK2 cells; assay: Smad1 accumulation in the nucleus of HK2 cells (Ser-Thr signal transduction); assay type: cell-based, human; settings: fluorescent labeling of Smad-1, FIG. 8, FIG. 9
Description: Open column is non-inflammation background level of ICAM-1; Black column is the ICAM-1 level following TNF-alpha inflammatory stimulation. […] In the Ser-Thr signaling pathway, the ligand (TDF-1 or TP2.003) bind to both the type 1 receptor (ALK3) and the type 2 receptor (BMPR2) inducing oligomerization of the receptors. The type 2 receptor under goes phosphorylation and then phosphorylates the type 1 receptor, which then phosphorylates one of Smad 1, 5 or 8 (ref. to as Smad1 below). The phosphorylated Smad1 is then picked up by Smad4 and ferried into the nucleus. Thus, detection of the concentration of Smad1 in the nucleus is diagnostic of induction of signal transduction.
Note that in the right hand column, the phase contrast images of the HK2 cells showing close to confluency; the images on the left show fluorescent labeling of Smad-1 in the nucleus of HK2 cells.

EC50 ([1]; HK2 cells, TNF-alpha stimulus, read-out: ED50, lowering of ICAM-1 level)	Molecule	effect on level of ICAM-1 in HK2 cell medium [1]	Smad1 accumulation in the nucleus / induction of Ser-Thr signal transduction [2]
< 4 µM	CC(C)C[C@H](NC(=O)[C@@H](NC(=O)[C@H](CC(N)=O)NC(=O)[C@H](CO)NC(=O)[C@H](CO)NC(=O)[C@H](CC(=O)O)NC(=O)[C@H](CC(=O)O)NC(=O)[C@H](Cc1ccccc1)NC(=O)[C@H](Cc1ccc(O)cc1)NC(=O)[C@@H](N)CS)C(C)C)C(=O)N[C@@H](CS)C(=O)N[C@@H](CCCCN)C(=O)N[C@@H](CCCCN)C(=O)N[C@@H](Cc1ccc(O)cc1)C(=O)N[C@@H](CCCNC(=N)N)C(=O)N[C@@H](CO)C(=O)O [SEQ ID NO:45, CYFDDSSNVLCKKYRS] (H-CYFDDSSNVLCKKYRS-OH)	reduces the level of cellular inflammation marker ICAM-1; also recorded: lowers the level of ICAM-1 in a dose dependent manner	induces Ser-Thr signal transduction; also recorded: dose dependent response of Smad1 accumulation in the nucleus
	TDF-1: TDF-1 (BMP-7 or OP-1), bone morphogenetic protein-7; unlabeled control ligand in the binding and cell assays (protein) STGSKQRSQNRSKTPKNQEALRMANVAENSSSDQRQACKKHELYVSFRDLGWQDWIIAPEGYAAYYCEGECAFPLNSYMNATNHAIVQTLVHFINPETVPKPCCAPTQLNAISVLYFDDSSNVILKKYRNMVVRACGCH	lowers the level of ICAM-1 in a dose dependent manner	induces Ser-Thr signal transduction; also recorded: dose dependent response of Smad1 accumulation in the nucleus
